Experimental data: patent publication US20230158057A1, “COMPOSITIONS AND METHODS FOR THE TREATMENT OF PAIN” (Duke University, priority 2020, published 2023)
“Also recorded” adds a separate entry of the source.

Columns and labels:
naïve mice [1] = test: Von Frey testing of mechanical thresholds in naïve mice (WT and knockout); type: in vivo, mouse; conditions: for mechanical sensory thresholds (von Frey): i.t. injection
Method: (§1) Reflexive-based sensory testing in mice: All behavioral testing in mice was performed in a specialized humidity- and light-controlled mouse behavior facility maintained at 21-24° C., with testing conducted between the hours of 8:00-16:00. Mice were habituated to the testing environment for at least 2 days prior to baseline testing. All tests were performed by an experimenter who was blinded to experimental conditions, including genotypes and drug treatment. For multi-day experiments using STING agonists, mice were tested in the same room at approximately the same time each day. To measure mechanical sensitivity, mice were confined to individual chambers with non-transparent borders on an elevated mesh rack, preventing mice from visualizing or interacting with one another during the testing period. Mouse hindpaws were stimulated with a series of von Frey filaments with logarithmically increasing stiffness (0.02-2.56 g, Stoelting), which was applied perpendicularly to the central plantar surface. We determined the 50% paw withdrawal threshold using the up-down method. […] To test cold sensitivity, mice were again placed on an elevated metal mesh floor in isolated chambers, and a ˜20 μl acetone drop was applied to the central plantar surface of the mouse hindpaw using a pipette.
For the experiments utilizing i.t. 2′3′-cGAMP and 3′3′-cGAMP complexed with Lipofectamine 2000 (ThermoFisher, 11668), 10 μg 2′3′-cGAMP or 3′3′-cGAMP was incubated at room temperature for 30 minutes in sterile PBS with 3 μl Lipofectamine 2000. In this case, the vehicle control was 3 μl Lipofectamine 2000 in PBS, as in a previous study which used this approach. […] For experiments utilizing rabbit anti-IFN-α or -β neutralizing antibodies, a polyclonal rabbit IgG antibody served as the control. Antibodies were utilized in vivo at 300 ng/mouse or in vitro at 300 ng/ml. Paclitaxel was administered via repeated i.p. injections every other day for 4 days at a dose of 2 mg/kg. For the whole mount DRG recordings, young mice (4-6 weeks) were administered a single 6 mg/kg dose one week prior to the experiment. All intrathecal injections were performed under brief anesthesia with 2-2.5% isoflurane. Drugs administered by intrathecal injection were preceded by shaving a small area on the back corresponding to the injection site, followed by spinal puncture using a 30-gauge needle between the L5-L6 levels to deliver a maximum of 5-10 μl into the cerebrospinal fluid. Successful intrathecal injection was always confirmed by a brisk tail-flick upon delivery. For the experiments involving intraplantar (i.pl.) injection, IFN-α was dissolved in sterile saline and administered at the concentrations indicated in the figures in a total volume of 20 μl, administered under 2-2.5% isoflurane anesthesia to minimize animal stress. For these experiments, vehicle (saline) or IFN-α were slowly and carefully expressed into the left dorsal hindpaw of anesthetized mice and allowed to perfuse the tissue for ˜20 seconds prior to removal of the needle. […] Mechanical sensory testing was done anteriorly and care was taken to avoid Von Frey filament stimulation of the injection site.

[2] = tested on: mice with intrafemoral Lewis lung carcinoma (LLC); test: LLC bone cancer pain model, systemic (i.p.) treatment, behavior tests and body weight; type: in vivo, mouse
Method: Bone cancer pain model. The murine cell lines LLC1, LL/2-Luc2 or E0771 were lightly digested using 0.05% trypsin, followed by centrifugation to remove poorly digested cell clusters. Cells were then resuspended in PBS at a concentration of 1×10^8 cells/ml. The inoculation was performed as previously described (Wang, K. et al. “PD-1 blockade inhibits osteoclast formation and murine bone cancer pain.” The Journal of clinical investigation, (2020); Wang, Z. et al. “Anti-PD-1 treatment impairs opioid antinociception in rodents and nonhuman primates.” Sci Transl Med 12 (2020)). Briefly, mice were anesthetized with 4% isoflurane and the left leg was shaved and the skin disinfected with 10% povidone-iodine and 75% ethanol. A superficial incision (0.5-1 cm) was made near the knee joint, exposing the patellar ligament. […] The syringe contents were slowly injected into the femoral cavity over a 2-minute interval. To prevent further leakage of tumor cells outside of the bone cavity, the outer injection site was sealed with silicone adhesive (Kwik-Sil, World Precision Instruments, US). Animals with surgery related movement dysfunction or with outside bone tumor injection were excluded from the study. Drug treatment. […] All other reagents were dissolved in sterile saline or PBS. For experiments utilizing rabbit anti-IFN-α or -β neutralizing antibodies, a polyclonal rabbit IgG antibody served as the control. […] Behavior tests. All the behavioral tests were conducted in a blinded manner and performed during between the hours of 9:00-16:00. Animals were habituated in a light and humidity controlled testing environment for at least 2 days prior to baseline testing. For Von Frey testing, mice were confined to individual 5×5 cm boxes placed on an elevated wire grid. A blinded experimenter stimulated their hindpaws using a series of von Frey filaments with logarithmically increasing stiffness (0.02-2.56 g, Stoelting). Each filament was applied perpendicularly to the central plantar surface. The 50% paw withdrawal threshold was determined using Dixon's up-down method.

[3] = Solubility noted at drug preparation; type: physicochemical; conditions: diluted in PBS containing 5% DMSO and 0.0625% Tween-20
Method: For the experiments utilizing i.t. 2′3′-cGAMP and 3′3′-cGAMP complexed with Lipofectamine 2000 (ThermoFisher, 11668), 10 μg 2′3′-cGAMP or 3′3′-cGAMP was incubated at room temperature for 30 minutes in sterile PBS with 3 μl Lipofectamine 2000. In this case, the vehicle control was 3 μl Lipofectamine 2000 in PBS, as in a previous study which used this approach. […] For experiments utilizing rabbit anti-IFN-α or -β neutralizing antibodies, a polyclonal rabbit IgG antibody served as the control. Antibodies were utilized in vivo at 300 ng/mouse or in vitro at 300 ng/ml. Paclitaxel was administered via repeated i.p. injections every other day for 4 days at a dose of 2 mg/kg. For the whole mount DRG recordings, young mice (4-6 weeks) were administered a single 6 mg/kg dose one week prior to the experiment. All intrathecal injections were performed under brief anesthesia with 2-2.5% isoflurane. Drugs administered by intrathecal injection were preceded by shaving a small area on the back corresponding to the injection site, followed by spinal puncture using a 30-gauge needle between the L5-L6 levels to deliver a maximum of 5-10 μl into the cerebrospinal fluid. Successful intrathecal injection was always confirmed by a brisk tail-flick upon delivery. […]

naïve mice [4] = test: Hot plate test after resiniferatoxin ablation of TRPV1+ nociceptors; type: in vivo, mouse
tumor-bearing femora = test: Bone fractures of tumor-bearing femora on d17 after LLC inoculation; type: in vivo, mouse; conditions: vehicle 87.5%
Method: Development and progression of cancer-induced osteolytic bone destruction frequently leads to bone fracture, which is an important component of SREs in patients with bone metastasis and is associated with decreased overall survival. On d17 after LLC inoculation, mice were euthanized and the tumor bearing femora were collected and the distal tumor-bearing femur where bone destruction occurs was analyzed.

mice with CIPN or BCP = test: Conditioned place preference (CPP) assay in chronic pain (CIPN and BCP) models; type: in vivo, mouse; conditions: mice with neuropathic pain (CIPN), i.t. 35 nmol
Method: (§2) All mice underwent 3 d of preconditioning habituation in a temperature- and humidity-controlled room under low-light conditions between 08:00-16:00 in a two compartment CPP chamber (Med Associates Inc.). The two compartments differed by both visual and tactile cues. On the 4th day, animal behavior was video-recorded using a webcam connected to a laptop computer, and animal movement was automatically tracked for 15 minutes using the ANY-Maze software (Stoelting). […] On the conditioning day(s) (day 5 for single trial; day 5-7 for repeated trials), two pairing sessions were performed, with vehicle pairing in the AM session and drug treatment (e.g., vehicle or drug) in the PM session, separated by 4 h. In the AM session, mice always received vehicle (10 μl saline, delivered via i.t. injection under isoflurane anesthesia) and were immediately placed in their preferred CPP chamber for 2 h. […] 24 h after the completion of the pairing experiments, mice were placed in the CPP test box with access to both chambers and behavior was recorded for 15 minutes and analyzed using the ANY-Maze software for chamber preference. CPP score was calculated as the inverse of the time spent in the preferred chamber according to: [post-preference (sec)—pre-preference (sec)]. Vehicle served as a negative control for these experiments, while morphine (three trials/naïve mice) or clonidine (single trial/ongoing pain) served as positive controls.

[5] = tested on: rhesus macaques (Macaca mulatta); conditions: comparison value; cited from earlier work
naïve mice [6] = test: Conditioned place preference (CPP) assay in naïve mice; conditions: i.t., morphine 2 nmol, DMXAA or ADU-S100 35 nmol
Method: as §2

naïve mice [7] = test: Naloxone reversal of antinociception; type: in vivo, mouse; conditions: naloxone 10 mg/kg i.p.; morphine 2 nmol i.t., DMXAA or ADU-S100 35 nmol i.t.
Method: Following naloxone delivery, mice were tested within 15 minutes. For the experiments testing whether mice developed tolerance to the effects of STING agonists, vehicle or DMXAA (35 nmol) were administered via i.t. injection. Naïve mice received five single injections at D0, D3, D6, D9, and D12, with testing each day 4 h after injection. SNI mice received injections on two consecutive days beginning on D7 (D7 and D8) and every 48 h afterwards following the conclusion of sensory testing (D10, D12, D14, D16, and D18). Spinal cords (L4-L5) were collected for analysis of glial cell activation at D21 following SNI.

[8] = tested on: Ifnar1+/+ and Ifnar1−/− mice; type: in vivo, mouse; conditions: i.t. IFN-α
Method: as §1, with “pipette. […]” for “pipette.”

## Nc1nc2c(ncn2[C@@H]2O[C@@H]3COP(=O)(O)O[C@H]4[C@@H](O)[C@H](n5cnc6c(N)ncnc65)O[C@@H]4COP(=O)(O)O[C@@H]2[C@@H]3O)c(=O)[nH]1 [2′3′-cGAMP, 2′3′ cyclic guanosine monophosphate—adenosine monophosphate]
naïve mice [1]; naïve mice
  mechanical sensory thresholds (von Frey): induced dose-dependent antinociception; also recorded: elevated mechanical thresholds

## Nc1nc2c(ncn2[C@@H]2O[C@@H]3COP(=O)(O)O[C@H]4[C@@H](O)[C@H](n5cnc6c(N)ncnc65)O[C@@H]4COP(=O)(O)O[C@H]3[C@H]2O)c(=O)[nH]1 [3′3′-cGAMP]
naïve mice [1]; naïve mice
  mechanical sensory thresholds (von Frey): induced dose-dependent antinociception; also recorded: elevated mechanical thresholds
[2]; d11, 4 h after single i.p. injection
  acute effect on bone cancer pain: could attenuate cold allodynia or/and mechanical allodynia

## O=C(Nc1ccc(I)cc1)c1ccc([N+](=O)[O-])o1 [C-176]
[3]
  solubility: poor solubility
naïve mice [1]; naïve mice, i.t.
  mechanical sensitivity after i.t. inhibitor or neutralizing antibody: transient dose-dependent hypersensitivity

## CCc1ccc(NC(=O)Nc2c[nH]c3ccccc23)cc1 [H-151]
[3]
  solubility: poor solubility
naïve mice [1]; naïve mice, i.t.
  mechanical sensitivity after i.t. inhibitor or neutralizing antibody: transient dose-dependent hypersensitivity

## Cn1cc(Nc2nccc(N3C[C@H]4CC[C@@H](C3)N4C(=O)[C@@H]3CC3(F)F)n2)cn1 [PF-06700841]
naïve mice [1]; naïve mice, i.t.
  mechanical sensitivity after i.t. inhibitor or neutralizing antibody: induced transient, dose-dependent mechanical allodynia
naïve mice [1]; naïve mice, i.t., 1 μg
  effect of pretreatment on IFN-β-induced antinociception: abolished IFN-β-induced antinociception

## C=C(C)[C@]12C[C@@H](C)[C@@]34O[C@](Cc5ccccc5)(O[C@@H]1[C@@H]3C=C(COC(=O)Cc1ccc(O)c(OC)c1)C[C@]1(O)C(=O)C(C)=C[C@@H]41)O2 [RTX]
naïve mice [4]
  heat sensitivity in the hot plate test: heat insensitivity

## O=P(O)(O)C(O)(Cn1ccnc1)P(=O)(O)O [ZA, Zoledronic acid]
tumor-bearing femora
  mice with distal bone fractures: 25%
[2]; LLC model, twice i.p.
  body weight: no effect on overall body weight

## Clc1cccc(Cl)c1N=C1NCCN1 [clonidine]
Mice with CIPN or BCP
  conditioned place preference, single pairing: robust CPP

## CN1CC[C@]23c4c5ccc(O)c4O[C@H]2[C@@H](O)C=C[C@H]3[C@H]1C5 [morphine]
[5]
  intrathecal dose producing analgesia in NHPs: 100 nmol
naïve mice [6]
  conditioned place preference, repeated pairing: induces CPP
naïve mice [7]
  effect of naloxone on the antinociception of the substance: reversed

## IFN-α
[8]
  mechanical hypersensitivity induced by intraplantar IFN-α: could block the mechanical hypersensitivity induced by intraplantar IFN-α
naïve mice [1]; i.t.
  antinociception in WT vs Ifnar1-gKO/cKO mice: induced transient antinociception in WT mice which was abolished in Ifnar1-gKO/cKO mice
  mechanical hypersensitivity of STINGgt/gt mice: could transiently rescue mechanical hypersensitivity
naïve mice [1]; naïve mice, i.t.
  paw withdrawal thresholds after i.t. recombinant interferon: increased paw withdrawal thresholds
naïve mice [1]; naïve mice, i.t., listed as IFN-a
  paw withdrawal thresholds after i.t. recombinant interferon: induced transient, dose-dependent antinociception

## IFN-β: recombinant mouse IFN-β produced in mammalian cells (PBL Assay Science, 12410-1)
naïve mice [1]; i.t.
  antinociception in WT vs Ifnar1-gKO/cKO mice: induced transient antinociception in WT mice which was abolished in Ifnar1-gKO/cKO mice
  mechanical hypersensitivity of STINGgt/gt mice: could transiently rescue mechanical hypersensitivity
naïve mice [1]; naïve mice, i.t.
  paw withdrawal thresholds after i.t. recombinant interferon: induced transient, dose-dependent antinociception; also recorded: increased paw withdrawal thresholds

## poly(I:C)
naïve mice [1]; i.t. 1 μg, knockout genotypes
  effect on mechanical thresholds in knockout mice: abolished in Ifnar1fx/fx; Nav1.8-Cre and RIG-I−/− mice
naïve mice [1]; i.t. 1 μg, responsive genotypes
  mechanical thresholds after i.t. dsDNA or dsRNA analog: elevated mechanical thresholds similarly in Ifnar1fx/fx (WT), STINGgt/gt, and cGAS−/− mice
